Assay results from US20110281285A1, “Assay for Detecting Cathepsin K Activty in Bone, Cartilage and/or Soft Tissue” (priority 2009, published 2011).
Non-standard residues stand in square brackets, D forms with d. No end group written: not given here. Hyp = O=C(O)[C@@H]1C[C@@H](O)CN1

T1: Recombinant human cathepsin K (Homo sapiens, UniProt P43235)
T1 construct: processed to the mature form and purified as described previously; made in house; host or cells: Pichia pastoris
T1 sequence (P43235 115-329): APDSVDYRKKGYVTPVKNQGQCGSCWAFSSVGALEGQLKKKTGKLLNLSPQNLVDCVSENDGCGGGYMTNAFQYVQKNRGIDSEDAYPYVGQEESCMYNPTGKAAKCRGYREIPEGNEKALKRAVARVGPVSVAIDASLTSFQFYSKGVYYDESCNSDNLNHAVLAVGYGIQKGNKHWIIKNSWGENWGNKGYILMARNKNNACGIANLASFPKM


Columns and labels:
[1] = target: T1, Recombinant human cathepsin K; test: Digestion of human Col II with cathepsin K, C2K neoepitope by inhibition ELISA; format: biochemical; settings: pH 7.0, 2 μmol/L cathepsin K, peak at 48 hours, versus absence of chondroitin sulfate (FIG. 4)
Description: Immulon™ 2 plates (VWR International, Montreal, Canada) were coated with the peptide-ovalbumin conjugate (prepared as described above for the hemocyanin conjugate) diluted in phosphate-buffered saline (PBS), pH 7.2, at 3 ng/well (50 μl/well), the optimum concentration as determined by checkerboard analyses. After overnight incubation at 4° C., the plate was washed three times with PBS-0.1% Tween™ 20 and blocked with 100 μl of PBS-1% bovine serum albumin (BSA), at room temperature for 30 minutes. Serial dilutions of the standard peptide containing the epitope that had been used for immunization were prepared and added at 50 μl/well in triplicate to round bottom polypropylene plates used as preincubation plates; the antiserum was diluted 1:12,000 (optimum dilution as determined by checkerboard analyses) in PBS-1% BSA, 0.1% Tween 20, pH 7.2, and added to the plates (50 μl/well). In the nonspecific binding wells 50 μl of PBS-1% BSA and 50 μl of PBS-1% BSA, 0.1% Tween 20 were added; the maximum binding wells contained 50 μl of the diluted antiserum and 50 μl of PBS-1% BSA. After 1 hour incubation at 37° C., 50 μl of each preincubated well was transferred to the Immulon 2 flat-bottom, 96-well microtiter plates. The plates were incubated at 4° C. for 30 minutes and then washed three times with PBS-0.1% Tween 20. […] The optical density (405 nm) was read after 1 hour incubation. […]

antiserum R771 = test: Competitive inhibition ELISA for neoepitope specificity of the antiserum; format: binding, rabbit; settings: for competition by / binding of the antibody to competing synthetic peptide: competitive inhibition ELISA, FIG. 1A and B
Description: A direct enzyme-linked immunosorbent assay (ELISA) assay was used to determine the antibody titer. The antiserum with the highest titer was selected for use. Investigation of the neoepitope specificity of the antiserum was performed by competitive inhibition ELISA as described.^17 The percentage binding and percentage inhibition were calculated for each of the standard peptides and results were expressed on a molar basis.
Immulon™ 2 plates (VWR International, Montreal, Canada) were coated with the peptide-ovalbumin conjugate (prepared as described above for the hemocyanin conjugate) diluted in phosphate-buffered saline (PBS), pH 7.2, at 3 ng/well (50 μl/well), the optimum concentration as determined by checkerboard analyses. After overnight incubation at 4° C., the plate was washed three times with PBS-0.1% Tween™ 20 and blocked with 100 μl of PBS-1% bovine serum albumin (BSA), at room temperature for 30 minutes. Serial dilutions of the standard peptide containing the epitope that had been used for immunization were prepared and added at 50 μl/well in triplicate to round bottom polypropylene plates used as preincubation plates; the antiserum was diluted 1:12,000 (optimum dilution as determined by checkerboard analyses) in PBS-1% BSA, 0.1% Tween 20, pH 7.2, and added to the plates (50 μl/well). In the nonspecific binding wells 50 μl of PBS-1% BSA and 50 μl of PBS-1% BSA, 0.1% Tween 20 were added; the maximum binding wells contained 50 μl of the diluted antiserum and 50 μl of PBS-1% BSA. After 1 hour incubation at 37° C., 50 μl of each preincubated well was transferred to the Immulon 2 flat-bottom, 96-well microtiter plates. The plates were incubated at 4° C. for 30 minutes and then washed three times with PBS-0.1% Tween 20. Alkaline phosphatase-conjugated goat antirabbit IgG (Sigma, St. Louis, Mo.), diluted 1:1000 in PBS-1% BSA, 0.1% Tween 20 was then added to each well (50 μl/well). The plate was incubated for 1 hour at 37° C., washed three times with PBS-0.1% Tween 20, and once with distilled water. One 5 mg tablet of alkaline phosphatase substrate (Sigma) was dissolved in 10 ml of 8.9 mmol/L diethanolamine buffer, pH 9.8, and added to the plate (50 μl/well). The optical density (405 nm) was read after 1 hour incubation. The detection limit of the newly developed assay was 2.8 ng/ml and the coefficients of variation (% CV) of the intra-assays and inter-assays were <10%. The analytic recovery was 87.2 to 97.3% and the recovery rates for the serial dilution were 92 to 108%.

α-chymotrypsin = target: T2, α-chymotrypsin (Bos taurus, UniProt P00766); test: Treatment of immunizing peptide with α-chymotrypsin; settings: 50 ng/ml immunizing peptide solution
T2 construct: purchased Sigma
Description: The content of C2K and C2C neoepitopes in cartilage were determined by extraction with α-chymotrypsin (Sigma). This degrades denatured but not intact triple helical collagen, to solubilize the collagen neoepitopes that can then be assayed. Femoral condylar cartilages from 17 normal and 19 OA individuals were washed and digested with α-chymotrypsin, as previously described.^23 The digest was removed and stored at −20° C. until analyzed. To ensure that the cathepsin K-generated neoepitope is not cleaved by α-chymotrypsin, a separate digestion was first performed by treating a 50 ng/ml immunizing peptide solution with α-chymotrypsin as described above. […] The concentration of the neoepitope released from the cartilage in the α-chymotrypsin digests was expressed as pmol of neoepitope/mg wet wt of cartilage (based on the molecular weights of the two neoepitope sequences used as standards in the ELISA assays: 717.8 Da for the C2K neoepitope and 972 Da for C2C).

[2] = target: antiserum R771 (rabbit polyclonal anti-C2K neoepitope antiserum); test: competitive inhibition ELISA: free peptide against plate-bound peptide-ovalbumin conjugate, antiserum R771 at 1:12,000

Molecule	competition by / binding of the antibody to competing synthetic peptide (antiserum R771)	other results
chondroitin 4-sulfate [C4S]	–	amount of C2K neoepitope on addition to the digestion buffer [1]: significantly increased
chondroitin 6-sulfate [C6S]	–	amount of C2K neoepitope on addition to the digestion buffer [1]: significantly increased
(vi): immunizing peptide with glutamic acid and alanine residues inverted (CGAEGKPG; listed as Homo sapiens)	negligible binding	–
(v): immunizing peptide with deletion of the alanine residue (CGEGKPG; listed as Homo sapiens)	negligible binding	–
(i): one-residue truncation of the immunizing peptide at the C terminus (CGEAGKP; listed as Homo sapiens)	negligible	–
peptide (iv): N-terminally truncated peptide, deletion of the G (CEAGKPG; listed as Homo sapiens)	some affinity	–
CGEAGKPG [immunizing peptide, N-terminal cysteine added]	–	IC50 (antiserum R771; peptide alone as competitive antigen, antiserum R771 diluted 1:12,000, read-out: median inhibitory concentration (IC50) in ELISA inhibition assay): 45 nM; loss of epitope after α-chymotrypsin treatment (α-chymotrypsin): No loss of epitope
(ii): one-residue extension of the immunizing peptide at the C terminus (CGEAGKPGK; listed as Homo sapiens)	negligible	–
peptide iii: sequence similar to the immunizing peptide, except for the proline residue that was 4-hydroxylated (CGEAGK[Hyp]G)	reduced affinity	–
CGEAGKPG	–	IC50 [2]: 45 nM
